This note sets out measurements from patent US20240174671A1, “New 2,3-Dihydro-1H-pyrrolo[3,2-b]pyridine Derivatives as Sigma Ligands” (ACONDICIONAMIENTO TARRASENSE, priority 2021, published 2024).

The target of one assay is T1, human σ1 receptor (Homo sapiens, UniProt Q99720).
T1 construct: expressed in transfected cells; host or cells: HEK-293
The experiment in a line: Human σ1 receptor radioligand assay ([3H](+)-pentazocine). The assay is classed as binding. As to conditions: transfected HEK-293 membranes, 5 nM [3H](+)-pentazocine, 37° C., 120 minutes; read-out: Binding σ-[…] (binding to σ1-receptor expressed as Ki). As to the method:
Human σ1 Receptor Radioligand Assay
(§1) NBS (non-specific binding) was measured by adding 10 μM haloperidol. The binding of the test compound was measured at either one concentration (% inhibition at 1 or 10 µM) or five different concentrations to determine affinity values (Ki). Plates were incubated at 37° C. for 120 minutes. After the incubation period, the reaction mix was then transferred to MultiScreen HTS, FC plates (Millipore), filtered and plates were washed 3 times with ice-cold 10 mM Tris-HCL (pH7.4). Filters were dried and counted at approximately 40% efficiency in a MicroBeta scintillation counter (Perkin-Elmer) using EcoScint liquid scintillation cocktail.

A further assay addresses T2, human σ2/TMEM97 receptor (Homo sapiens, UniProt Q5BJF2).
T2 construct: expressed in transfected cells; host or cells: HEK-293
Put plainly: Binding assay to human σ2/TMEM97 receptor ([3H]-DTG). As to conditions: transfected HEK-293 membranes, 10 nM [3H]-DTG, 25° C., 120 minutes; read-out: Binding σ-[…] (binding to σ2-receptor expressed as Ki). The procedure: Binding Assay to Human σ2/TMEM97 Receptor.
as §1, with “Transfected HEK-293 membranes (15 μg) were incubated with 10 nM [^3H]-1,3-Di-o-tolylguanidine (DTG) in assay buffer containing Tris-HCl 50 mM at pH 8.0. NSB” for “NBS”, “25°” for “37°”, “was” for “was then”, “and” for “and plates were”, “(pH 8.0).” for “(pH7.4).”

Where only a bound is given, the exact number is not on record here.

T2 sequence (Q5BJF2 whole entry): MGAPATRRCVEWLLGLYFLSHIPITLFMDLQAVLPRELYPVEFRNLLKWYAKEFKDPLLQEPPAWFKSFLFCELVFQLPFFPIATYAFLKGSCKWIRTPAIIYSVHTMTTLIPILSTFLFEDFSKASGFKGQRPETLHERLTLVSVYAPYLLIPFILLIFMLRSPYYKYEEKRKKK
T1 sequence (Q99720 whole entry): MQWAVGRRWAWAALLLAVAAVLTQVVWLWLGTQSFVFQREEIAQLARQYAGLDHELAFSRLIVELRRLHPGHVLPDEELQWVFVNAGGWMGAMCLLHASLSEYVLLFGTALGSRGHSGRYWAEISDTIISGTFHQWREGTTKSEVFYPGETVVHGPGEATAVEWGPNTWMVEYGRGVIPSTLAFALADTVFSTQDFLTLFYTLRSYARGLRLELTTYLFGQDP

As for `Cc1ccc2c(n1)C(C)(C)CN2C(=O)NC1CCN(Cc2cccc(Cl)c2)CC1` [Example 55, N-(1-(3-chlorobenzyl)piperidin-4-yl)-3,3,5-trimethyl-2,3-dihydro-1H-pyrrolo[3,2-b]pyridine-1-carboxamide], the Ki (usually the dissociation constant of the complex between target and ligand, obtained from inhibition or displacement) at human σ1 receptor is less than 100 nM; at human σ2/TMEM97 receptor, 100 to 500 nM.

As for `Cc1ccc2c(n1)C(C)(C)CN2C(=O)N1CCC(N(C)Cc2cccc(S(C)(=O)=O)c2)CC1` [Example 56, (4-(methyl(3-(methylsulfonyl)benzyl)amino)piperidin-1-yl)(3,3,5-trimethyl-2,3-dihydro-1H-pyrrolo[3,2-b]pyridin-1-yl)methanone], the Ki at human σ1 receptor is more than 1000 nM; at human σ2/TMEM97 receptor, 500 to 1000 nM.

Consider `Cc1ccc2c(n1)C(C)(C)CN2C(=O)N1CCC2(CCN(Cc3ccccc3)CC2)CC1` [Example 57, (9-benzyl-3,9-diazaspiro[5.5]undecan-3-yl)(3,3,5-trimethyl-2,3-dihydro-1H-pyrrolo[3,2-b]pyridin-1-yl)methanone], for which the inhibitory constant (Ki) on human σ1 receptor and on human σ2/TMEM97 receptor was less than 100 nM each time.

`COc1ccc(CN(C)C2CCN(C(=O)N3CC(C)(C)c4nc(C)ccc43)CC2)cc1` [Example 58, (4-((4-methoxybenzyl)(methyl)amino)piperidin-1-yl)(3,3,5-trimethyl-2,3-dihydro-1H-pyrrolo[3,2-b]pyridin-1-yl)methanone]: the Ki at human σ1 receptor and on human σ2/TMEM97 receptor was 100 to 500 nM throughout.

Take `COc1cccc(CN(C)C2CCN(C(=O)N3CC(C)(C)c4nc(C)ccc43)CC2)c1` [Example 59]: the Ki was 500 to 1000 nM on human σ1 receptor and less than 100 nM at human σ2/TMEM97 receptor.

As for `Cc1ccc2c(n1)C(C)(C)CN2C(=O)N1CCC(N(C)Cc2ccc(F)c(C#N)c2)CC1` [Example 60, 2-fluoro-5-((methyl(1-(3,3,5-trimethyl-2,3-dihydro-1H-pyrrolo[3,2-b]pyridine-1-carbonyl)piperidin-4-yl)amino)methyl)benzonitrile], the Ki is 100 to 500 nM at human σ1 receptor and less than 100 nM on human σ2/TMEM97 receptor.

For `CN(Cc1ccccc1)[C@H]1CCCN(C(=O)N2CCc3ncccc32)C1` [Example 61, (S)-(3-(benzyl(methy)amino)piperidin-1-yl)(2,3-dihydro-1H-pyrrolo[3,2-b]pyridin-1-yl)methanone], the Ki is more than 1000 nM at human σ1 receptor and less than 100 nM at human σ2/TMEM97 receptor.

As for `CN(CCc1ccccc1)[C@H]1CCN(C(=O)N2CCc3ncccc32)C1` [Example 62, (S)-(2,3-dihydro-1H-pyrrolo[3,2-b]pyridin-1-yl)(3-(methyl(phenethyl)amino)pyrrolidin-1-yl)methanone], the results for the Ki on human σ1 receptor and at human σ2/TMEM97 receptor were more than 1000 nM and 500 to 1000 nM, respectively.

As to `Cc1ccc2c(n1)C(C)(C)CN2C(=O)N1CCC(N(C)Cc2cccc(C(=O)N(C)C)c2)CC1` [Example 63, N, N-dimethyl-3-((methyl(1-(3,3,5-trimethyl-2,3-dihydro-1H-pyrrolo[3,2-b]pyridine-1-carbonyl)piperidin-4-yl)amino)methyl)benzamide], the Ki on human σ1 receptor and at human σ2/TMEM97 receptor was more than 1000 nM each time.

For `CC(C)CCN(C)[C@H]1CCCN(C(=O)N2CCc3ncccc32)C1` [Example 64, (S)-(2,3-dihydro-1H-pyrrolo[3,2-b]pyridin-1-yl)(3-(isopentyl(methy)amino)piperidin-1-yl)methanone], the Ki at human σ1 receptor and at human σ2/TMEM97 receptor was less than 100 nM throughout.

`Cc1ccc2c(n1)C(C)(C)CN2C(=O)N1CCC(N(C)CC2CCOCC2)CC1` [Example 65, (4-(methyl((tetrahydro-2H-pyran-4-yl)methyl)amino)piperidin-1-yl)(3,3,5-trimethyl-2,3-dihydro-1H-pyrrolo[3,2-t]pyridin-1-yl)methanone]: the Ki on human σ1 receptor is 100 to 500 nM; on human σ2/TMEM97 receptor it was less than 100 nM.

`Cc1ccc2c(n1)C(C)(C)CN2C(=O)N1CCC(CN(C)Cc2ccccc2)CC1` [Example 66, (4-((benzyl(methyl)amino)methyl)piperidin-1-yl)(3,3,5-trimethyl-2,3-dihydro-1H-pyrrolo[3,2-b]pyridin-1-yl)methanone]: the Ki at human σ1 receptor and at human σ2/TMEM97 receptor was 100 to 500 nM each time.

`Cc1ccc2c(n1)C(C)(C)CN2C(=O)N1CCC(N(C)CCC(C)C)CC1` [Example 67, (4-(isopentyl(methyl)amino)piperidin-1-yl)(3,3,5-trimethyl-2,3-dihydro-1H-pyrrolo[3,2-b]pyridin-1-yl)methanone]: the Ki on human σ1 receptor and at human σ2/TMEM97 receptor was less than 100 nM each time.

In the case of `Cc1ccc2c(n1)C(C)(C)CN2C(=O)N1CCC(N(C)Cc2ccc(N(C)C)cc2)CC1` [Example 68, (4-((4-(dimethylamino)benzyl)(methyl)amino)piperidin-1-yl)(3,3,5-trimethyl-2,3-dihydro-1H-pyrrolo[3,2-b]pyridin-1-yl)methanone], the results for the Ki at human σ1 receptor and at human σ2/TMEM97 receptor were 100 to 500 nM and less than 100 nM, respectively.

Regarding `CC1(C)CN(C(=O)NCC2CCN(Cc3ccccc3)CC2)c2cccnc21` [Example 69, N-((1-benzylpiperidin-4-yl)methyl)-3,3-dimethyl-2,3-dihydro-1H-pyrrolo[3,2-b]pyridine-1-carboxamide], the Ki on human σ1 receptor and at human σ2/TMEM97 receptor was 100 to 500 nM throughout.

Turning to `CC1(C)CN(C(=O)NCC2CCN(CCc3ccccc3)CC2)c2cccnc21` [Example 70, 3,3-dimethyl-N-((1-phenethylpiperidin-4-yl)methyl)-2,3-dihydro-1H-pyrrolo[3,2-b]pyridine-1-carboxamide], the results for the Ki at human σ1 receptor and at human σ2/TMEM97 receptor were more than 1000 nM and 100 to 500 nM, respectively.

With `CN(Cc1ccccc1)[C@H]1CC[C@H](NC(=O)N2CC(C)(C)c3ncccc32)CC1` [Example 71, N-((1r,4r)-4-(benzyl(methyl)amino)cyclohexyl)-3,3-dimethyl-2,3-dihydro-1H-pyrrolo[3,2-b]pyridine-1-carboxamide], the inhibition constant (Ki) on human σ1 receptor is more than 1000 nM; on human σ2/TMEM97 receptor it was less than 100 nM.

In the case of `CN(Cc1ccccc1)[C@H]1CC[C@@H](NC(=O)N2CC(C)(C)c3ncccc32)CC1` [Example 72, N-((1s,4s)-4-(benzyl(methyl)amino)cyclohexyl)-3,3-dimethyl-2,3-dihydro-1H-pyrrolo[3,2-b]pyridine-1-carboxamide], the Ki at human σ1 receptor and at human σ2/TMEM97 receptor was less than 100 nM in each case.

`Cc1ccc2c(n1)C(C)(C)CN2C(=O)N1CCC(N(C)Cc2ccccn2)CC1` [Example 73, (4-(methyl(pyridin-2-ylmethyl)amino)piperidin-1-yl)(3,3,5-trimethyl-2,3-dihydro-1H-pyrrolo[3,2-b]pyridin-1-yl)methanone]: the Ki is more than 1000 nM at human σ1 receptor and 500 to 1000 nM at human σ2/TMEM97 receptor.

Consider `Cc1ccc2c(n1)C(C)(C)CN2C(=O)N1CCC(N(C)Cc2cccnc2)CC1` [Example 74, (4-(methyl(pyridin-3-ylmethyl)amino)piperidin-1-yl)(3,3,5-trimethyl-2,3-dihydro-1H-pyrrolo[3,2-b]pyridin-1-yl)methanone], for which the figures for the Ki at human σ1 receptor and at human σ2/TMEM97 receptor were more than 1000 nM and 500 to 1000 nM, respectively.

For `Cc1ccc2c(n1)C(C)(C)CN2C(=O)N1CCC(N(C)Cc2ccncc2)CC1` [Example 75, (4-(methyl(pyridin-4-ylmethyl)amino)piperidin-1-yl)(3,3,5-trimethyl-2,3-dihydro-1H-pyrrolo[3,2-b]pyridin-1-yl)methanone], the values for the Ki at human σ1 receptor and at human σ2/TMEM97 receptor were more than 1000 nM and 500 to 1000 nM, respectively.

On to `CN(Cc1cc(F)cc(C#N)c1)C1CCN(C(=O)N2CC(C)(C)c3ncccc32)CC1` [Example 76, 3-(((1-(3,3-dimethyl-2,3-dihydro-1H-pyrrolo[3,2-b]pyridine-1-carbonyl)piperidin-4-yl)(methyl)amino)methyl)-5-fluorobenzonitrile], for which the figures for the Ki on human σ1 receptor and on human σ2/TMEM97 receptor were more than 1000 nM and 500 to 1000 nM, respectively.

For the compound `CN(Cc1cc(C#N)ccc1F)C1CCN(C(=O)N2CC(C)(C)c3ncccc32)CC1` [Example 77, 3-(((1-(3,3-dimethyl-2,3-dihydro-1H-pyrrolo[3,2-b]pyridine-1-carbonyl)piperidin-4-yl)(methyl)amino)methyl)-4-fluorobenzonitrile], the inhibitory constant (Ki) at human σ1 receptor is more than 1000 nM; at human σ2/TMEM97 receptor, 100 to 500 nM.

As to `CN(Cc1ccccc1)[C@H]1CC[C@H](N(C)C(=O)N2CC(C)(C)c3ncccc32)CC1` [Example 78, N-((1r,4r)-4-(benzyl(methyl)amino)cyclohexyl)-N,3,3-trimethyl-2,3-dihydro-1H-pyrrolo[3,2-b]pyridine-1-carboxamide], the results for the Ki on human σ1 receptor and at human σ2/TMEM97 receptor were 500 to 1000 nM and less than 100 nM, respectively.

On to `CN(Cc1ccc(F)c(F)c1)C1CCN(C(=O)N2CC(C)(C)c3ncccc32)CC1` [Example 79, (4-((3,4-Difluorobenzyl)(methyl)amino)piperidin-1-yl)(3,3-dimethyl-2,3-dihydro-1H-pyrrolo[3,2-b]pyridin-1-yl)methanone], for which the Ki on human σ1 receptor was 100 to 500 nM; on human σ2/TMEM97 receptor it was less than 100 nM.

On to `Cc1ccc2c(n1)C(C)(C)CN2C(=O)N1CCC2(CCN(Cc3ccccc3)CC2)C1` [Example 80, (8-benzyl-2,8-diazaspiro[4.5]decan-2-yl)(3,3,5-trimethyl-2,3-dihydro-1H-pyrrolo[3,2-b]pyridin-1-yl)methanone], for which the Ki on human σ1 receptor is 100 to 500 nM; on human σ2/TMEM97 receptor, less than 100 nM.
